Legend:
Details in all cases: 72 h
[1] = tested on: HepG2; experiment: drug sensitivity score (DSS) for viability; higher = more toxic; extreme values may be limits of the assay
[2] = tested on: Caco-2; experiment: as above
[3] = tested on: U2OS; experiment: as above
[4] = tested on: Calu-3; experiment: as above
[5] = tested on: Vero E6; experiment: as above
[6] = tested on: HepG2; experiment: cell viability relative to DMSO; higher = less toxic
[7] = tested on: Caco-2; experiment: as above
[8] = tested on: U2OS; experiment: as above
[9] = tested on: Calu-3; experiment: as above
[10] = tested on: Vero E6; experiment: as above
[11] = tested on: HepG2; experiment: relative viability EC50 (midpoint between 100% and the lowest measured viability); higher = less toxic
[12] = tested on: Caco-2; experiment: as above
[13] = tested on: U2OS; experiment: as above
[14] = tested on: Calu-3; experiment: as above
[15] = tested on: Vero E6; experiment: as above

| SMILES | drug sensitivity score [1] | drug sensitivity score [2] | drug sensitivity score [3] | drug sensitivity score [4] | drug sensitivity score [5] | cell viability ([6]; 1 nM) [%] | cell viability ([6]; 10 nM) [%] | cell viability ([6]; 100 nM) [%] | cell viability ([6]; 1000 nM) [%] | cell viability ([6]; 10000 nM) [%] | cell viability ([7]; 1 nM) [%] | cell viability ([7]; 10 nM) [%] | cell viability ([7]; 100 nM) [%] | cell viability ([7]; 1000 nM) [%] | cell viability ([7]; 10000 nM) [%] | cell viability ([8]; 1 nM) [%] | cell viability ([8]; 10 nM) [%] | cell viability ([8]; 100 nM) [%] | cell viability ([8]; 1000 nM) [%] | cell viability ([8]; 10000 nM) [%] | cell viability ([9]; 1 nM) [%] | cell viability ([9]; 10 nM) [%] | cell viability ([9]; 100 nM) [%] | cell viability ([9]; 1000 nM) [%] | cell viability ([9]; 10000 nM) [%] | cell viability ([10]; 1 nM) [%] | cell viability ([10]; 10 nM) [%] | cell viability ([10]; 100 nM) [%] | cell viability ([10]; 1000 nM) [%] | cell viability ([10]; 10000 nM) [%] | relative viability EC50 [11] [µM] | relative viability EC50 [12] [µM] | relative viability EC50 [13] [µM] | relative viability EC50 [14] [µM] | relative viability EC50 [15] [µM] |
| --- | --- | --- | --- | --- | --- | --- | --- | --- | --- | --- | --- | --- | --- | --- | --- | --- | --- | --- | --- | --- | --- | --- | --- | --- | --- | --- | --- | --- | --- | --- | --- | --- | --- | --- | --- |
| C[C@]12CCC(=O)C(O)=C1CC[C@@H]1[C@@H]2CC[C@]2(C)C(=O)CC[C@@H]12 [formestane] | 0 | 0 | 0 | 0 | 0 | 117 | 111 | 108 | 112 | 98.6 | 114 | 96.9 | 95 | 105 | 117 | 102 | 98.2 | 102 | 95.3 | 105 | 98.7 | 96.1 | 91.4 | 93.8 | 93.3 | 97.8 | 92.4 | 86.7 | 103 | 104 | > 10 | > 10 | > 10 | > 10 | > 10 |
| C[C@]12CC[C@@H]3c4ccc(O)cc4C[C@@H](CCCCCCCCC[S+]([O-])CCCC(F)(F)C(F)(F)F)[C@H]3[C@@H]1CC[C@@H]2O (stereo not given in full) [fulvestrant] | 0.3 | 0.1 | 0 | 0 | 0 | 100 | 102 | 96.8 | 98 | 86.7 | 104 | 107 | 102 | 110 | 85.4 | 105 | 110 | 102 | 103 | 88.7 | 96.7 | 114 | 104 | 90.2 | 92.7 | 100 | 102 | 100 | 96.9 | 99.6 | > 10 | > 10 | > 10 | > 10 | > 10 |
| CCC(C/C=C/c1ccccc1)(c1ccccc1)N(C)CC1CC1 (stereo not given) [igmesine] | 0 | 0 | 0 | 0 | 0 | 102 | 105 | 101 | 102 | 96.8 | 95.4 | 97 | 95.2 | 102 | 103 | 94.7 | 99 | 100 | 101 | 102 | 99 | 104 | 96.8 | 102 | 97.8 | 98.8 | 97.7 | 94.2 | 98.1 | 107 | > 10 | > 10 | > 10 | > 10 | > 10 |
| O=C(CCCCC(=O)Nc1c(I)cc(I)c(C(=O)O)c1I)Nc1c(I)cc(I)c(C(=O)O)c1I [iodipamide] | 0 | 0 | 0 | 0 | 0 | 96 | 93.3 | 97.6 | 101 | 103 | 106 | 106 | 97.1 | 95.3 | 102 | 96.2 | 103 | 97.7 | 95.1 | 97.9 | 98 | 104 | 93.6 | 101 | 101 | 102 | 99.2 | 101 | 98.6 | 103 | > 10 | > 10 | > 10 | > 10 | > 10 |
| CC(=O)N(CC(O)CO)c1c(I)c(C(=O)NCCO)c(I)c(C(=O)NCC(O)CO)c1I (stereo not given) [ioxilan] | 0 | 0 | 0 | 0 | 0 | 105 | 101 | 86 | 109 | 90.8 | 103 | 91.6 | 93.6 | 90.5 | 90.6 | 97.1 | 97.1 | 101 | 92.8 | 102 | 105 | 96.9 | 99.7 | 101 | 88.9 | 113 | 103 | 93 | 106 | 101 | > 10 | > 10 | > 10 | > 10 | > 10 |
| CC(C)Cn1cnc2c1c(=O)n(C)c(=O)n2C [isbufylline] | 0 | 0 | 0 | 0 | 0 | 100 | 99 | 91.7 | 93.7 | 105 | 93.7 | 96.8 | 112 | 115 | 112 | 98.1 | 96.5 | 98.1 | 97.3 | 93.3 | 104 | 88.5 | 101 | 102 | 98.4 | 92.9 | 95.9 | 91.3 | 104 | 106 | > 10 | > 10 | > 10 | > 10 | > 10 |
| CN[C@@H](C)CCC=C(C)C [isometheptene-mucate] | 0 | 0 | 0 | 0 | 0 | 96.1 | 101 | 107 | 94.5 | 95 | 93.4 | 102 | 93.7 | 93.9 | 106 | 104 | 96.5 | 98.7 | 103 | 105 | 94 | 100 | 98.1 | 100 | 108 | 91.1 | 96.2 | 92.5 | 97 | 104 | > 10 | > 10 | > 10 | > 10 | > 10 |
| O=C(O)Cc1ccc2c(c1)C(=O)c1ccccc1CO2 [isoxepac] | 0 | 0 | 0 | 0 | 0 | 99.1 | 103 | 97.5 | 101 | 91.2 | 94.7 | 102 | 109 | 100 | 93.6 | 102 | 95.4 | 101 | 98.3 | 101 | 96.9 | 97.9 | 98.5 | 101 | 98.5 | 98.3 | 97.5 | 101 | 101 | 100 | > 10 | > 10 | > 10 | > 10 | > 10 |
| O=c1c(-c2ccc(O)cc2)coc2c([C@@H]3O[C@H](CO)[C@@H](O)[C@H](O)[C@H]3O)c(O)ccc12 [kakonein] | 0 | 0 | 0 | 0 | 0 | 95.7 | 97.7 | 84.6 | 99.6 | 93.5 | 122 | 104 | 108 | 106 | 96.3 | 99.2 | 95.1 | 99.3 | 95.2 | 97.9 | 104 | 99.3 | 111 | 102 | 95.5 | 98 | 103 | 99.1 | 95.3 | 91.8 | > 10 | > 10 | > 10 | > 10 | > 10 |
| O=C(O)c1cc(=O)c2ccccc2[nH]1 [kynurenic-acid] | 0 | 0 | 0 | 0 | 0 | 93.9 | 94.2 | 99.1 | 108 | 96 | 94.9 | 101 | 99.6 | 99.6 | 106 | 104 | 101 | 103 | 97 | 98.8 | 89.7 | 89.2 | 97.1 | 94.1 | 104 | 96.9 | 98.7 | 97.6 | 97.5 | 97.7 | > 10 | > 10 | > 10 | > 10 | > 10 |
| O=C1CCC[C@@H]2[C@H]3CCCN4CCC[C@@H](CN12)[C@@H]34 [matrine] | 0 | 0 | 0 | 0 | 0 | 89.9 | 108 | 85.8 | 111 | 103 | 97.6 | 94 | 94.9 | 91.4 | 90.4 | 96.1 | 96.4 | 96.4 | 93.7 | 99.1 | 97 | 93.5 | 100 | 98.5 | 100 | 96.8 | 98.7 | 93.3 | 99.1 | 104 | > 10 | > 10 | > 10 | > 10 | > 10 |
| CC(C)(C)NC[C@H](O)c1ccc(O)cc1Cl [meluadrine] | 0 | 0 | 0 | 0 | 0 | 105 | 106 | 103 | 95 | 105 | 97.9 | 97.6 | 93.9 | 97.6 | 90.7 | 99.3 | 101 | 96.4 | 100 | 96.4 | 92.8 | 104 | 98.3 | 104 | 104 | 109 | 102 | 102 | 99.9 | 104 | > 10 | > 10 | > 10 | > 10 | > 10 |
| COP(=O)(OC)OC(c1ccc(Cl)cc1)P(=O)(OC)OC (stereo not given) [mifobate] | 0 | 0 | 0 | 0 | 0 | 107 | 98.5 | 92.8 | 99.8 | 93.7 | 106 | 94.5 | 98 | 107 | 105 | 101 | 97.5 | 101 | 94.4 | 98.3 | 93.6 | 94.1 | 85.1 | 96.7 | 96.3 | 101 | 94.5 | 98 | 92.5 | 100 | > 10 | > 10 | > 10 | > 10 | > 10 |
| CCOC(=O)Nc1cc2c(c(N)n1)N=C(c1ccccc1)[C@H](C)N2 [mivobulin] | 31.1 | 23.8 | 32.4 | 23.7 | 38.5 | 99.6 | 42.9 | 24.1 | 21.5 | 22.9 | 103 | 52.5 | 48.7 | 47.3 | 42.2 | 95.7 | 38.6 | 20.7 | 23.3 | 21.9 | 95.7 | 65.2 | 37.5 | 40.7 | 42.7 | 94.3 | 20.2 | 8.2 | 9.9 | 13.5 | 0.0067 | 0.0055 | 0.005 | 0.0083 | 0.0039 |

Source: the supplement of paper PMC13380429
